This is an account of results in patent US11084800B2 (Achillion Pharmaceuticals, Inc., priority 2017, dated 2021).

This test concerns the target Human Factor D (Homo sapiens (Human), UniProt P00746). Kind of test: Human Factor D Assay. The test is classed as biochemical. The essentials:
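Thioester substrate Z-L-Lys-SBz (100 μM) with Ellman's reagent DTNB (100 μM) reports activity of 80 nM human serum-derived enzyme, kinetically at 405 nm over 30 min. Compound preincubated 5 min, room temperature, pH 7.5 Tris/1 M NaCl; IC50 by nonlinear fit of rates.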

Setting [1] is: Factor D inhibition, assay of Example 10, read-out: IC5 (Stars).
Where [2] appears, read: Table 8, Factor D 80 nM, substrate Z-L-Lys-SBz, read-out: IC50.

Each structure is given as a SMILES string. Read-outs that look alike come from different tables or passages of the source.

Chain of Human Factor D (P00746 26-253): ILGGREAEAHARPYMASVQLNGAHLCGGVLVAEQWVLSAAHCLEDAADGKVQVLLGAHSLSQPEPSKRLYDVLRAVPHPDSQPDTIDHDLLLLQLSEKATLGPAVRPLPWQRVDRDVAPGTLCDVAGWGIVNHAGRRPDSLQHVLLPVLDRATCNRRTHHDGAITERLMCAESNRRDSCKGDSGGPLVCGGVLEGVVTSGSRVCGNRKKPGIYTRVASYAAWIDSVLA

For `CC(=O)c1nn(CC(=O)N2[C@H](C(=O)Nc3cccc(Oc4ccccn4)n3)C[C@@]3(C)C[C@@H]23)c2c(C)cc(-c3cnc(C)nc3)cc12` [Compound 449, (1R,3S,5R)-2-(2-(3-acetyl-7-methyl-5-(2-methylpyrimidin-5-yl)-1H-indazol-1-yl)acetyl)-5-methyl-N-(6-(pyridin-2-yloxy)pyridin-2-yl)-2-azabicyclo[3.1.0]hexane-3-carboxamide], under setting [1], the IC50 was under 1000 nM.
On the same count and under the same terms, as for `CC(=O)c1nn(CC(=O)N2[C@H](C(=O)Nc3nc(-c4ccccn4)ccc3C)C[C@@]3(C)C[C@@H]23)c2ccc(-c3cnc(C)nc3)cc12` [Compound 450, (1R,3S,5R)-2-(2-(3-acetyl-5-(2-methylpyrimidin-5-yl)-1H-indazol-1-yl)acetyl)-5-methyl-N-(5-methyl-[2,2′-bipyridin]-6-yl)-2-azabicyclo[3.1.0]hexane-3-carboxamide], the figure is 1000 to 10000 nM; as for `CC(=O)c1nn(CC(=O)N2[C@H](C(=O)Nc3cccc(-n4ccccc4=O)n3)C[C@@]3(C)C[C@@H]23)c2c(C)cc(-c3cnc(C)nc3)cc12` [Compound 451, (1R,3S,5R)-2-(2-(3-acetyl-7-methyl-5-(2-methylpyrimidin-5-yl)-1H-indazol-1-yl)acetyl)-5-methyl-N-(2-oxo-2H-[1,2′-bipyridin]-6′-yl)-2-azabicyclo[3.1.0]hexane-3-carboxamide], under 1000 nM.
On the same count and under the same terms, next, `CC(=O)c1nn(CC(=O)N2[C@H](C(=O)Nc3nc(Br)ccc3C)C[C@@]3(C)C[C@@H]23)c2ccc(-c3ccncc3)cc12` [Compound 452, (1R,3S,5R)-2-(2-(3-acetyl-5-(pyridin-4-yl)-1H-indazol-1-yl)acetyl)-N-(6-bromo-3-methylpyridin-2-yl)-5-methyl-2-azabicyclo[3.1.0]hexane-3-carboxamide]: under 1000 nM.
For `CC(=O)c1nn(CC(=O)N2[C@H](C(=O)Nc3nc(Br)ccc3C)C[C@@]3(C)C[C@@H]23)c2ccc(-c3ccc(C)cn3)cc12` [Compound 453, (1R,3S,5R)-2-(2-(3-acetyl-5-(5-methylpyridin-2-yl)-1H-indazol-1-yl)acetyl)-N-(6-bromo-3-methylpyridin-2-yl)-5-methyl-2-azabicyclo[3.1.0]hexane-3-carboxamide], under setting [1], the IC50 was under 1000 nM.
The same measure, in the same setting: next, `CC(=O)c1nn(CC(=O)N2[C@H](C(=O)Nc3cc(C)cc(Br)n3)C[C@@]3(C)C[C@@H]23)c2c(C)cc(-c3cnc(C)nc3)cc12` [Compound 456, (1R,3S,5R)-2-(2-(3-acetyl-7-methyl-5-(2-methylpyrimidin-5-yl)-1H-indazol-1-yl)acetyl)-N-(6-bromo-4-methylpyridin-2-yl)-5-methyl-2-azabicyclo[3.1.0]hexane-3-carboxamide]: under 1000 nM; `CC(=O)c1cn(CC(=O)N2[C@H](C(=O)Nc3nc(Br)c(F)cc3C)C[C@@]3(C)C[C@@H]23)c2ccc(-c3cnc(C)nc3)cc12` [Compound 457, (1R,3S,5R)-2-(2-(3-acetyl-5-(2-methylpyrimidin-5-yl)-1H-indol-1-yl)acetyl)-N-(6-bromo-5-fluoro-3-methylpyridin-2-yl)-5 methyl-2-azabicyclo[3.1.0]hexane-3-carboxamide]: under 1000 nM.
In the case of `CC(=O)c1nn(CC(=O)N2[C@H](C(=O)N[C@@H](CC(C)C)C(=O)O)C[C@@]3(C)C[C@@H]23)c2c(C)cc(-c3cnc(C)nc3)cc12` [Compound 458, ((1R,3S,5R)-2-(2-(3-acetyl-7-methyl-5-(2-methylpyrimidin-5-yl)-1H-indazol-1-yl)acetyl)-5-methyl-2-azabicyclo[3.1.0]hexane-3-carbonyl)-L-leucine], the IC50 under setting [1] is under 1000 nM.
The same measure, in the same setting: as for `CC(=O)c1cn(CC(=O)N2[C@H](C(=O)Nc3nc(C(F)(F)F)ccc3C)C[C@@]3(C)C[C@@H]23)c2c(C)cc(-c3cnc(C)nc3)cc12` [Compound 459, (1R,3S,5R)-2-(2-(3-acetyl-7-methyl-5-(2-methylpyrimidin-5-yl)-1H-indol-1-yl)acetyl)-5-methyl-N-(3-methyl-6-(trifluoromethyl)pyridin-2-yl)-2-azabicyclo[3.1.0]hexane-3-carboxamide], the figure is under 1000 nM; as for `CC(=O)c1nn(CC(=O)N2[C@H](C(=O)Nc3cccn(-c4ccccn4)c3=O)C[C@@]3(C)C[C@@H]23)c2c(C)cc(-c3cnc(C)nc3)cc12` [Compound 460, (1R,3S,5R)-2-{2-[3-Acetyl-7-methyl-5-(2-methylpyrimidin-5-yl)indazol-1-yl]acetyl}-5-methyl-N-{2-oxo-[1,2′-bipyridine]-3-yl}-2-azabicyclo[3.1.0]hexane-3-carboxamide], under 1000 nM.
Same read-out and setting: as for `CC(=O)c1nn(CC(=O)N2[C@H](C(=O)Nc3cc(Br)ncc3F)C[C@@]3(C)C[C@@H]23)c2cnc(-c3cnc(C)nc3)cc12` [Compound 461, (1R,3S,5R)-2-(2-(3-acetyl-5-(2-methylpyrimidin-5-yl)-1H-pyrazolo[3,4-c]pyridin-1-yl)acetyl)-N-(2-bromo-5-fluoropyridin-4-yl)-5-methyl-2-azabicyclo[3.1.0]hexane-3-carboxamide], the figure is 1000 to 10000 nM.
The same measure, in the same setting: as for `CC(=O)c1nn(CC(=O)N2[C@H](C(=O)N[C@H](Cc3ccccc3)C(=O)O)C[C@@]3(C)C[C@@H]23)c2c(C)cc(-c3cnc(C)nc3)cc12` [Compound 462, ((1R,3S,5R)-2-(2-(3-acetyl-7-methyl-5-(2-methylpyrimidin-5-yl)-1H-indazol-1-yl)acetyl)-5-methyl-2-azabicyclo[3.1.0]hexane-3-carbonyl)-D-phenylalanine], the figure is 1000 to 10000 nM.
Turning to `CC(=O)c1nn(CC(=O)N2[C@H](C(=O)N[C@H](CC(C)C)C(=O)O)C[C@@]3(C)C[C@@H]23)c2c(C)cc(-c3cnc(C)nc3)cc12` [Compound 464, ((1R,3S,5R)-2-(2-(3-acetyl-7-methyl-5-(2-methylpyrimidin-5-yl)-1H-indazol-1-yl)acetyl)-5-methyl-2-azabicyclo[3.1.0]hexane-3-carbonyl)-D-leucine], the IC50 under setting [1] was in the range of 1000 to 10000 nM.
The same measure, in the same setting: next, `Cc1ncc(-c2ccc3c(c2)c(C(=O)C(F)(F)F)cn3CC(=O)N2[C@H](C(=O)Nc3nc(Br)ccc3C)C[C@@]3(C)C[C@@H]23)cn1` [Compound 465, (1R,3S,5R)-N-(6-bromo-3-methylpyridin-2-yl)-5-methyl-2-(2-(5-(2-methylpyrimidin-5-yl)-3-(2,2,2-trifluoroacetyl)-1H-indol-1-yl)acetyl)-2-azabicyclo[3.1.0]hexane-3-carboxamide]: under 1000 nM; `CC(=O)c1nn(CC(=O)N2[C@H](C(=O)Nc3nc(Br)ccc3C)C[C@@]3(C)C[C@@H]23)c2cc(F)c(-c3cnc(C)nc3)cc12` [Compound 466, (1R,3S,5R)-2-(2-(3-acetyl-6-fluoro-5-(2-methylpyrimidin-5-yl)-1H-indazol-1-yl)acetyl)-N-(6-bromo-3-methylpyridin-2-yl)-5-methyl-2-azabicyclo[3.1.0]hexane-3-carboxamide]: under 1000 nM.
The same measure, in the same setting: as for `COC(=O)c1nn(CC(=O)N2[C@H](C(=O)Nc3nc(Br)ccc3C)C[C@@]3(C)C[C@@H]23)c2ccc(-c3cnc(C)nc3)cc12` [Compound 467, Methyl 1-{2-[(1R,3S,5R)-3-[(6-bromo-3-methylpyridin-2-yl)carbamoyl]-5-methyl-2-azabicyclo[3.1.0]hexan-2-yl]-2-oxoethyl}-5-(2-methylpyrimidin-5-yl)indazole-3-carboxylate], the figure is under 1000 nM; as for `Cc1ncc(-c2ccc3c(c2)c(C(=O)O)nn3CC(=O)N2[C@H](C(=O)Nc3nc(Br)ccc3C)C[C@@]3(C)C[C@@H]23)cn1` [Compound 469, 1-{2-[(1R,3S,5R)-3-[(6-Bromo-3-methylpyridin-2-yl)carbamoyl]-5-methyl-2-azabicyclo[3.1.0]hexan-2-yl]-2-oxoethyl}-5-(2-methylpyrimidin-5-yl)indazole-3-carboxylic Acid], over 10000 nM.
On the same count and under the same terms, next, `Cc1ncc(-c2cc3c(C(=O)C(F)(F)F)cn(CC(=O)N4[C@H](C(=O)Nc5nc(Br)ccc5C)C[C@@]5(C)C[C@@H]45)c3cn2)cn1` [Compound 470, (1R,3S,5R)-N-(6-bromo-3-methylpyridin-2-yl)-5-methyl-2-(2-(5-(2-methylpyrimidin-5-yl)-3-(2,2,2-trifluoroacetyl)-1H-pyrrolo[2,3-c]pyridin-1-yl)acetyl)-2-azabicyclo[3.1.0]hexane-3-carboxamide]: under 1000 nM; `CC(=O)c1cn(CC(=O)N2[C@H](C(=O)Nc3nc(Br)c(F)cc3C)C[C@@]3(C)C[C@@H]23)c2c(C)nc(-c3cnc(C)nc3)cc12` [Compound 471]: under 1000 nM; `CC(=O)c1cn(CC(=O)N2[C@H](C(=O)Nc3nc(Br)ccc3C)C[C@@]3(C)C[C@@H]23)c2c(C)nc(-c3cnc(C)nc3)cc12` [Compound 472, (1R,3S,5R)-2-(2-(3-Acetyl-7-methyl-5-(2-methylpyrimidin-5-yl)-1H-pyrrolo[2,3-c]pyridin-1-yl)acetyl)-N-(6-bromo-3-methylpyridin-2-yl)-5-methyl-2-azabicyclo[3.1.0]hexane-3-carboxamide]: under 1000 nM.
Regarding `CCNC(=O)c1nn(CC(=O)N2[C@H](C(=O)Nc3nc(Br)ccc3C)C[C@@]3(C)C[C@@H]23)c2ccc(-c3cnc(C)nc3)cc12` [Compound 474, 1-{2-[(1R,3S,5R)-3-[(6-Bromo-3-methylpyridin-2-yl)carbamoyl]-5-methyl-2-azabicyclo[3.1.0]hexan-2-yl]-2-oxoethyl}-N-ethyl-5-(2-methylpyrimidin-5-yl)indazole-3-carboxamide], the IC50 under setting [1] is under 1000 nM.
With `CCCNC(=O)c1nn(CC(=O)N2[C@H](C(=O)Nc3nc(Br)ccc3C)C[C@@]3(C)C[C@@H]23)c2ccc(-c3cnc(C)nc3)cc12` [Compound 475], under setting [2], the IC50 was under 1000 nM.
The same measure, in the same setting: as for `CCCCNC(=O)c1nn(CC(=O)N2[C@H](C(=O)Nc3nc(Br)ccc3C)C[C@@]3(C)C[C@@H]23)c2ccc(-c3cnc(C)nc3)cc12` [Compound 476], the figure is under 1000 nM.
